Data: publication PMC8453848, “Effect of GLPG1205, a GPR84 Modulator, on CYP2C9, CYP2C19, and CYP1A2 Enzymes: In Vitro and Phase 1 Studies” (Clinical Pharmacology in Drug Development, 2021)
Where two headings read alike, the source gives them in different places.

Assays:
CYP1A2 [1] = molecular target: T1, CYP1A2 (Homo sapiens, UniProt P05177); settings: for tmax: median (min‐max); for R_AUC0‐t (metabolite‐over‐parent ratio): geometric mean (geometric CV%)
T1 sequence (P05177 1-516): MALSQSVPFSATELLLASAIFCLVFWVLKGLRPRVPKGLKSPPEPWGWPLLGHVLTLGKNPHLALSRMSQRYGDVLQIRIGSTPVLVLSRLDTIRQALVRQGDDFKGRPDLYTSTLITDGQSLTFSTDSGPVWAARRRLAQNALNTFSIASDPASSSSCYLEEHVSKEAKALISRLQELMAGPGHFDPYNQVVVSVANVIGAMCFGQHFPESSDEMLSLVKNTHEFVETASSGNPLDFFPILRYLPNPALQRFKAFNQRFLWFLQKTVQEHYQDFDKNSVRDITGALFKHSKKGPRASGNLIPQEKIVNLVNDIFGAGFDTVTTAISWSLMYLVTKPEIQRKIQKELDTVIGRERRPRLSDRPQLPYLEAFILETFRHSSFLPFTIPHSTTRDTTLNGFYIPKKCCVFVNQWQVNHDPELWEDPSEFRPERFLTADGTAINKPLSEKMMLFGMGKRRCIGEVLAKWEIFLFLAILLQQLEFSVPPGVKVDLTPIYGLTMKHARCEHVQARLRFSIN
Procedure: (§1) This was a phase 1 single‐center, randomized, double‐blind, placebo‐controlled crossover drug‐drug interaction study (ClinicalTrials.gov number NCT02623296).
(§2) Subjects received treatment in 1 of 2 sequences (AB or BA, n = 7 in each sequence). In treatment A, oral doses of GLPG1205 100 mg once a day were administered from day 1 to day 12. On day 13, GLPG1205 100 mg (capsule form) was coadministered with the CYP450 substrates following an overnight fast. In treatment B, oral doses of placebo (capsule form) once a day were administered from day 1 to day 12. On day 13 placebo was coadministered with the CYP450 substrates following an overnight fast. Dose administration on day 13 was followed by a 4‐hour fast. The 2 treatment sequences were separated by a washout period of at least 28 days.
(§3) Pharmacokinetic assessments included analysis of GLPG1205, and the CYP450 substrates and their metabolites in plasma. In each treatment period, blood samples were collected by venipuncture in the arm predose on days 7, 9, 10, and 13 and on day 13 at 1, 2, 4, 6, 8, 12, 24 (day 14), 48 (day 15), 96 (day 17), and 144 (day 19) hours postdose for PK analysis. For treatment period 2, an additional blood sample was also taken at 168 hours (day 20; follow‐up visit) postdose. Samples collected on days 7, 9, and 10 were for GLPG1205 analysis only. Blood samples of 2 mL were collected for the determination of GLPG1205 in plasma, and of 9 mL for the determination of CYP450 substrates and their metabolites. After collection, blood samples were immediately chilled using an ice bath. Within 30 minutes of collection, samples were separated by centrifugation at 1500 g for 10 minutes at 4°C. For GLPG1205, ≥250 μL of plasma was transferred into 2.0‐mL polypropylene tubes and stored at –20°C or below immediately after centrifugation at the clinical center until shipment to analysis centers. For CYP450 substrates, 500 μL of plasma was transferred to 2.0‐mL polypropylene tubes. […] All samples were shipped on dry ice to analysis centers. Repetitive freeze‐thaw cycles were avoided to maintain the integrity of samples. Plasma concentrations were measured using LC‐MS/MS; further details can be found in the Supplemental Methods. Pharmacokinetic calculations were performed by SGS LSS using Phoenix WinNonLin 6.2 or higher (Pharsight Corporation, Palo Alto, California). […] Values below the quantification limit were imputed by 0 for the calculation of descriptive statistics except for geometric mean and geometric coefficient of variation (CV), for which it was imputed by half the lower limit of quantification.
(§4) An analysis of variance (ANOVA) with treatment, treatment period, and sequence as fixed effects and subject as a random effect was performed on natural log‐transformed PK parameters (R, Cmax, AUC0‐inf, AUC0‐t, and t1/2,λz) of CYP450 substrates and their metabolites on day 13. The treatment effect for tmax was assessed using the nonparametric Wilcoxon's signed rank test. Point estimates were calculated as the geometric mean of the individual ratios for each parameter for treatment A (GLPG1205 + CYP450 substrates) relative to treatment B (placebo + CYP450 substrates) and expressed as fold difference.

CYP1A2 [2] = molecular target: T1, CYP1A2; assay: clinical; settings: male, plasma, oral; for half-life: t1/2, λz
Procedure: as §1, §2, §3, §4

CYP2C9 = CYP2C9 (Homo sapiens, UniProt P11712); settings: for AUC0‐inf: arithmetic mean (CV%); for tmax: median (min‐max)
Sequence of CYP2C9 (P11712 whole entry): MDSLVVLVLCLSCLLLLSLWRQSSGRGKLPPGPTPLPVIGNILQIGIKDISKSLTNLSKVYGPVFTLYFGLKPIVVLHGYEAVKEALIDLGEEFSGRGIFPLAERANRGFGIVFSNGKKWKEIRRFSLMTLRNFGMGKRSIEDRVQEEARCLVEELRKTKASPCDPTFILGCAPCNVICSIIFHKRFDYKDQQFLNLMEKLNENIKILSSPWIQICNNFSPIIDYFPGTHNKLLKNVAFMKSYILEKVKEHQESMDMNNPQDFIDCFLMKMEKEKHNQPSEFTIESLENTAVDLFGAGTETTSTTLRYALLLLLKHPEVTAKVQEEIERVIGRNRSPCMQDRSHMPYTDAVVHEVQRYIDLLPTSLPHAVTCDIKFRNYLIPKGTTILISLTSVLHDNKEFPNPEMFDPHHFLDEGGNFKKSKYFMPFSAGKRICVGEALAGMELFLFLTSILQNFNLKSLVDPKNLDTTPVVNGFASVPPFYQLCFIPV
Procedure: as §1, §2, §3, §4

CYP2C19 = CYP2C19 (Homo sapiens, UniProt P33261); assay: Phase 1 drug-drug interaction study: PK of omeprazole and 5-hydroxyomeprazole with placebo or GLPG1205; settings: for tmax: median (min‐max); for AUC: male, plasma, oral, arithmetic mean (CV%)
Sequence of CYP2C19 (P33261 whole entry): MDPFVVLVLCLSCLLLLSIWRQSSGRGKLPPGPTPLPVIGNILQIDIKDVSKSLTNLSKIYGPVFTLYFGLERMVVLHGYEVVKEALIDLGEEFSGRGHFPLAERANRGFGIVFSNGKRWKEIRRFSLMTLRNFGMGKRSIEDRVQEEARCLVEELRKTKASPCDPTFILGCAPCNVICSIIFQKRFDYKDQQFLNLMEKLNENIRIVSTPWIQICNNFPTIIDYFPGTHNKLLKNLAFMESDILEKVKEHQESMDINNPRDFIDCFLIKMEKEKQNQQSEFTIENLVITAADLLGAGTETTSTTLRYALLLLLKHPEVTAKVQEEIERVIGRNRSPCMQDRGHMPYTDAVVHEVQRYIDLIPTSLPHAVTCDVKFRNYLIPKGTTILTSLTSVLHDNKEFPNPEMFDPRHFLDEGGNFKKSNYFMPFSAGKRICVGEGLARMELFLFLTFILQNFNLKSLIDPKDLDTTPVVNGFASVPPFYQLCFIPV
Procedure: Prior to injection into the analytical system, isolation of omeprazole, its metabolite and the deuterated IS (omeprazole –d3) from 200 µL of human Li-heparin plasma was performed by solid phase extraction performed on Oasis HBL 60mg 3cc cartridges (Waters, Zellik, Belgium). The elution from the cartridges was done with 1 mL of methanol and then the eluate was evaporated to dryness under a stream of nitrogen at approximatively +35°C. The residue was reconstituted with 0.2 mL of mobile phase and then centrifuged at about 3500 rpm for 5 minutes at +5°C. 120 µL of the clear supernatant was transferred into injection vials. […] Chromatographic separation was performed on a Zorbax XBD-C8 column (Agilent, Eindhoven, The Netherlands) (50 x 4.6 mm, 3.5 µm from Interchim) by using a Nexera HLPC system (Shimadzu, Kyoto, Japan) in isocratic elution mode.

[3] = AUC0‐t, GLPG1205 100 mg once a day + caffeine, arithmetic mean (CV%)
[4] = AUC0‐t, Placebo + caffeine, arithmetic mean (CV%)
[5] = GLPG1205 100 mg once a day + caffeine 100 mg day 13, n = 14, arithmetic mean (CV%)
[6] = Placebo + caffeine 100 mg day 13, n = 14, arithmetic mean (CV%)
[7] = GLPG1205 100 mg once a day + caffeine
[8] = GLPG1205 relative to placebo (ANOVA)
[9] = GLPG1205 100 mg once a day + warfarin

For `Cn1c(=O)c2c(ncn2C)n(C)c1=O` [Caffeine, caffeine], the tmax (CYP1A2 [1]; Placebo + caffeine) was 1.0 (0.3‐3.0) h, the AUC (CYP1A2 [2]; AUC0‐inf, GLPG1205 100 mg once a day + caffeine, arithmetic mean (CV%)) was 17.4 µg·h/mL and the AUC (CYP1A2 [2]; AUC0‐inf, Placebo + caffeine, n = 12, arithmetic mean (CV%)) was 18.7 µg·h/mL. It also gave an AUC (CYP1A2 [2]; [3]) of 15.7 µg·h/mL, an AUC (CYP1A2 [2]; [4]) of 16.3 µg·h/mL and a Cmax (CYP1A2 [2]; [5]) of 2.16 µg/mL. The Cmax (CYP1A2 [2]; [6]) was 2.15 µg/mL, the half-life (CYP1A2 [2]; GLPG1205 100 mg once a day + caffeine, arithmetic mean (CV%)) was 4.9 h and the half-life (CYP1A2 [2]; Placebo + caffeine, n = 13, arithmetic mean (CV%)) was 5.73 h.

In the case of `Cn1c(=O)[nH]c2ncn(C)c2c1=O` [Paraxanthine, paraxanthine], the “R_AUC0‐t (metabolite‐over‐parent ratio)” value (CYP1A2 [1]; [7]) is reported as 0.538 (27.7), the tmax (CYP1A2 [1]; [7]) is reported as 7.0 (0.3‐12.0) h and the “AUC0‐t, PE (90% CI) of least‐squares geometric means ratio” value (CYP1A2 [1]; [8]) is reported as 0.96 (0.79‐1.16). For the same compound, the “Cmax, PE (90% CI) of least‐squares geometric means ratio” value (CYP1A2 [1]; [8]) was 1.08 (0.97‐1.21), the “R_AUC0‐t, PE (90% CI) of least‐squares geometric means ratio” value (CYP1A2 [1]; [8]) was 1.00 (0.87‐1.15) and the “R_AUC0‐t (metabolite‐over‐parent ratio)” value (CYP1A2 [1]; Placebo + caffeine) was 0.539 (30.5). For the same compound, the AUC (CYP1A2 [2]; [3]) was 8.6 µg·h/mL, the AUC (CYP1A2 [2]; [4]) was 8.43 µg·h/mL and the Cmax (CYP1A2 [2]; [5]) was 0.634 µg/mL. For the same compound, the Cmax (CYP1A2 [2]; [6]) was 0.577 µg/mL.

With `CC(=O)C[C@@H](c1ccccc1)c1c(O)c2ccccc2oc1=O` [(S)‐Warfarin, (S)‐warfarin] the Cmax (CYP2C9; GLPG1205 100 mg once a day + warfarin 10 mg day 13, n = 14, arithmetic mean (CV%)) was 0.481 (19.8) μg/mL, the “AUC0‐inf” value (CYP2C9; [9]) was 17.5 (24.9) μg·h/mL and the tmax (CYP2C9; [9]) was 2.0 (0.5‐4.0) h. The Cmax (CYP2C9; Placebo + warfarin 10 mg day 13, n = 14, arithmetic mean (CV%)) was 0.453 (21.3) μg/mL, the “AUC0‐inf” value (CYP2C9; Placebo + warfarin) was 15.1 (21.1) μg·h/mL and the tmax (CYP2C9; Placebo + warfarin) was 2.0 (0.5‐4.0) h.

With `CC(=O)C[C@@H](c1ccccc1)c1c(O)c2ccc(O)cc2oc1=O` [(S)‐7‐Hydroxywarfarin, (S)‐7‐hydroxywarfarin] the “AUC0‐t, PE (90% CI) of least‐squares geometric means ratio” value (CYP2C9; human, in vivo) was 1.15 (1.00‐1.32) and the “R_AUC0‐t, PE (90% CI) of least‐squares geometric means ratio” value (CYP2C9; in vivo) was 1.01 (0.87‐1.19).

For `COc1ccc2nc([S+]([O-])Cc3ncc(CO)c(OC)c3C)[nH]c2c1` (centres unmarked) [5‐Hydroxyomeprazole, 5‐hydroxyomeprazole], the “AUC0‐inf, PE (90% CI) of least‐squares geometric means ratio” value (CYP2C19; human, in vivo) was 1.08 (0.98‐1.20), the “AUC0‐t, PE (90% CI) of least‐squares geometric means ratio” value (CYP2C19; human, in vivo) was 1.08 (0.96‐1.21) and the “R_AUC0‐inf, PE (90% CI) of least‐squares geometric means ratio” value (CYP2C19; in vivo) was 0.83 (0.77‐0.89). For the same compound, the “R_AUC0‐t, PE (90% CI) of least‐squares geometric means ratio” value (CYP2C19; in vivo) was 0.84 (0.79‐0.89).

`COc1ccc2[nH]c([S+]([O-])Cc3ncc(C)c(OC)c3C)nc2c1` (centres unmarked) [Omeprazole, omeprazole, reference compound] was tested, and the tmax (CYP2C19; GLPG1205 100 mg once a day + omeprazole) was 2.0 (1.0‐5.0) h, the “AUC0‐inf, PE (90% CI) of least‐squares geometric means ratio” value (CYP2C19; [8]) was 1.36 (1.18‐1.58) and the “AUC0‐t, PE (90% CI) of least‐squares geometric means ratio” value (CYP2C19; [8]) was 1.28 (1.10‐1.49). For the same compound, the “Cmax, PE (90% CI) of least‐squares geometric means ratio” value (CYP2C19; [8]) was 1.30 (1.03‐1.65), the “t1/2, λz, PE (90% CI) of least‐squares geometric means ratio” value (CYP2C19; [8]) was 1.09 (0.97‐1.22) and the tmax (CYP2C19; Placebo + omeprazole) was 3.0 (2.0‐5.0) h. It also gave an AUC (CYP2C19; human, 20 mg, AUC0‐inf, Placebo + omeprazole) of 0.52 µg·h/mL, an AUC (CYP2C19; human, 20 mg, AUC0‐t, Placebo + omeprazole) of 0.486 µg·h/mL and an AUC (CYP2C19; human, AUC0‐inf, GLPG1205 100 mg once a day + omeprazole) of 0.548 µg·h/mL. The AUC (CYP2C19; human, AUC0‐t, GLPG1205 100 mg once a day + omeprazole) was 0.563 µg·h/mL.
